This passage reports TGI and GI50 results from PubChem BioAssay (NCI).

“And” between values parts separate entries of the source, which are not always exact repeats. Identical values can stand only once.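 Each compound was tested at five concentrations against cells in 96-well plates for 48 hours. GI50: concentration for 50% inhibition of growth. Definition used: TGI = concentration required for complete inhibition of growth.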

One experiment concerns M19-MEL melanoma. In words: growth of human tumour cells (NCI), 48 h.
Turning to `Nc1nc(=S)c2ncn(C3CC(O)C(CO)O3)c2[nH]1` (stereo not drawn), the TGI is > 4680 µM.

In the case of `NC(N)=NS(=O)(=O)c1ccc(NCc2c3ccccc3[n+]([O-])c3ccccc23)cc1`, the TGI is > 100 µM.

With `COC(=O)C(CCC#N)(CCC#N)C(=O)OC`, the TGI was > 100 µM.

For the compound `O=C(O)CC/C(=N\Nc1nsc2ccccc12)c1ccccc1`, the TGI is > 100 µM.

The test system of a further experiment is HCC-2998 colon. In words: growth of human tumour cells (NCI), 48 h.
As for `NC(N)=NS(=O)(=O)c1ccc(NCc2c3ccccc3[n+]([O-])c3ccccc23)cc1`, the TGI is > 100 µM.

Take `COC(=O)C(CCC#N)(CCC#N)C(=O)OC`: the TGI is > 100 µM.

In turn, `O=C(O)CC/C(=N\Nc1nsc2ccccc12)c1ccccc1` displayed a TGI of 90.8 µM.

In a further experiment the test system is HL-60(TB) leukemia. In words: growth of human tumour cells (NCI), 48 h.
Turning to `CCN(CC)c1c(C(=O)/C=C/c2ccccc2)c(-c2ccccc2)nn(C)c1=O`, the TGI is > 100 µM.

With `NC(N)=NS(=O)(=O)c1ccc(NCc2c3ccccc3[n+]([O-])c3ccccc23)cc1`, the TGI came to 44.4 µM.

For `COC(=O)C(CCC#N)(CCC#N)C(=O)OC`, the TGI is > 100 µM.

With `O=C(O)CC/C(=N\Nc1nsc2ccccc12)c1ccccc1`, the TGI was 71.9 µM.

The test system of another experiment is ACHN renal. In words: growth of human tumour cells (NCI), 48 h.
In the case of `CCN(CC)c1c(C(=O)/C=C/c2ccccc2)c(-c2ccccc2)nn(C)c1=O`, the TGI was > 100 µM.

With `NC(N)=NS(=O)(=O)c1ccc(NCc2c3ccccc3[n+]([O-])c3ccccc23)cc1`, the TGI stood at 70.4 µM.

As to `COC(=O)C(CCC#N)(CCC#N)C(=O)OC`, the TGI is > 100 µM.

Consider `O=C(O)CC/C(=N\Nc1nsc2ccccc12)c1ccccc1`, for which the TGI was > 100 µM.

The next experiment deals with OVCAR-5 ovarian. In words: growth of human tumour cells (NCI), 48 h.
As for `CCN(CC)c1c(C(=O)/C=C/c2ccccc2)c(-c2ccccc2)nn(C)c1=O`, the TGI is > 100 µM.

For `NC(N)=NS(=O)(=O)c1ccc(NCc2c3ccccc3[n+]([O-])c3ccccc23)cc1`, the TGI was > 100 µM.

As to `O=C(O)CC/C(=N\Nc1nsc2ccccc12)c1ccccc1`, the TGI is > 100 µM.

Another experiment concerns U251 CNS. The experiment can be described thus: growth of human tumour cells (NCI), 48 h.
Turning to `Nc1nc(=S)c2ncn(C3CC(O)C(CO)O3)c2[nH]1` (stereo not drawn), the TGI was 901 µM and > 4730 µM.

With `NC(N)=NS(=O)(=O)c1ccc(NCc2c3ccccc3[n+]([O-])c3ccccc23)cc1`, the TGI was > 100 µM.

Regarding `COC(=O)C(CCC#N)(CCC#N)C(=O)OC`, the TGI was > 100 µM.

Consider `O=C(O)CC/C(=N\Nc1nsc2ccccc12)c1ccccc1`, for which the TGI was > 100 µM.

The test system of a further experiment is NCI-H23 lung. In words: growth of human tumour cells (NCI), 48 h.
On to `NC(N)=NS(=O)(=O)c1ccc(NCc2c3ccccc3[n+]([O-])c3ccccc23)cc1`, for which the TGI is > 100 µM.

On to `COC(=O)C(CCC#N)(CCC#N)C(=O)OC`, for which the TGI was > 100 µM.

The compound `O=C(O)CC/C(=N\Nc1nsc2ccccc12)c1ccccc1` registered a TGI of 95.8 µM.

The subject of a further experiment is RPMI-8226 leukemia. In words: growth of human tumour cells (NCI), 48 h.
In the case of `NC(N)=NS(=O)(=O)c1ccc(NCc2c3ccccc3[n+]([O-])c3ccccc23)cc1`, the TGI amounted to 74.3 µM.

Regarding `COC(=O)C(CCC#N)(CCC#N)C(=O)OC`, the TGI is > 100 µM.

Compound `O=C(O)CC/C(=N\Nc1nsc2ccccc12)c1ccccc1` displayed a TGI of 49.6 µM.

The test system of the next experiment is BT-549 breast. The experiment can be described thus: growth of human tumour cells (NCI), 48 h.
`Nc1nc(=S)c2ncn(C3CC(O)C(CO)O3)c2[nH]1` (stereo not drawn): the TGI was 883 µM and 4760 µM.

In the next experiment the test system is M14 melanoma. In words: growth of human tumour cells (NCI), 48 h.
In the case of `NC(N)=NS(=O)(=O)c1ccc(NCc2c3ccccc3[n+]([O-])c3ccccc23)cc1`, the TGI was > 100 µM.

For the compound `COC(=O)C(CCC#N)(CCC#N)C(=O)OC`, the TGI was > 100 µM.

`O=C(O)CC/C(=N\Nc1nsc2ccccc12)c1ccccc1`: the TGI was > 100 µM.

The next experiment deals with NCI-H522 lung. In words: growth of human tumour cells (NCI), 48 h.
As to `CCN(CC)c1c(C(=O)/C=C/c2ccccc2)c(-c2ccccc2)nn(C)c1=O`, the TGI was > 100 µM.

Take `NC(N)=NS(=O)(=O)c1ccc(NCc2c3ccccc3[n+]([O-])c3ccccc23)cc1`: the TGI was > 100 µM.

With `COC(=O)C(CCC#N)(CCC#N)C(=O)OC`, the TGI is > 100 µM.

A further experiment deals with HCT-15 colon. In words: growth of human tumour cells (NCI), 48 h.
On to `NC(N)=NS(=O)(=O)c1ccc(NCc2c3ccccc3[n+]([O-])c3ccccc23)cc1`, for which the TGI was found to be 74.4 µM.

With `COC(=O)C(CCC#N)(CCC#N)C(=O)OC`, the TGI is > 100 µM.

Take `O=C(O)CC/C(=N\Nc1nsc2ccccc12)c1ccccc1`: the TGI was > 100 µM.

The test system of a further experiment is XF 498 CNS. In words: growth of human tumour cells (NCI), 48 h.
On to `CCN(CC)c1c(C(=O)/C=C/c2ccccc2)c(-c2ccccc2)nn(C)c1=O`, for which the TGI is > 100 µM.

As for `COC(=O)C(CCC#N)(CCC#N)C(=O)OC`, the TGI is > 100 µM.

The next experiment deals with CCRF-CEM leukemia. The experiment can be described thus: growth of human tumour cells (NCI), 48 h.
As to `NC(N)=NS(=O)(=O)c1ccc(NCc2c3ccccc3[n+]([O-])c3ccccc23)cc1`, the TGI was determined as 84.4 µM.

With `COC(=O)C(CCC#N)(CCC#N)C(=O)OC`, the TGI was > 100 µM.

In turn, `O=C(O)CC/C(=N\Nc1nsc2ccccc12)c1ccccc1` had a TGI of 96.7 µM.

The next experiment has as its system A498 renal. The experiment can be described thus: growth of human tumour cells (NCI), 48 h.
As to `CCN(CC)c1c(C(=O)/C=C/c2ccccc2)c(-c2ccccc2)nn(C)c1=O`, the TGI is > 100 µM.

As to `NC(N)=NS(=O)(=O)c1ccc(NCc2c3ccccc3[n+]([O-])c3ccccc23)cc1`, the TGI is > 100 µM.

The next experiment deals with HOP-18 NSCLC. The experiment can be described thus: growth of human tumour cells (NCI), 48 h.
As to `Nc1nc(=S)c2ncn(C3CC(O)C(CO)O3)c2[nH]1` (stereo not drawn), the TGI is > 983 µM and 4020 µM.

In the case of `NC(N)=NS(=O)(=O)c1ccc(NCc2c3ccccc3[n+]([O-])c3ccccc23)cc1`, the TGI was found to be 52.3 µM.

In the case of `O=C(O)CC/C(=N\Nc1nsc2ccccc12)c1ccccc1`, the TGI was > 100 µM.

A further experiment deals with SNB-19 CNS. The experiment can be described thus: growth of human tumour cells (NCI), 48 h.
In the case of `CCN(CC)c1c(C(=O)/C=C/c2ccccc2)c(-c2ccccc2)nn(C)c1=O`, the TGI was > 100 µM.

As for `Nc1nc(=S)c2ncn(C3CC(O)C(CO)O3)c2[nH]1` (stereo not drawn), the GI50 is 77.3 µM and 753 µM; the TGI is > 5000 µM.

As to `NC(N)=NS(=O)(=O)c1ccc(NCc2c3ccccc3[n+]([O-])c3ccccc23)cc1`, the TGI is > 100 µM.

As for `COC(=O)C(CCC#N)(CCC#N)C(=O)OC`, the TGI is > 100 µM.
